Tests used:
Assay type in all cases: functional
P388 [1] = test: Antitumor activity against Mus musculus (mouse) P388 cells xenografted in Mus musculus (mouse) assessed as increase in life span relative to control; set-up: concentration or dose not given beside the values
P388 [2] = test: Antitumor activity against Mus musculus (mouse) P388 cells xenografted in Mus musculus (mouse) assessed as increase in life span at 100 mg/kg relative to control
P388 [3] = test: Antitumor activity against Mus musculus (mouse) P388 cells xenografted in Mus musculus (mouse) assessed as increase in life span at 25 mg/kg relative to control

Row | SMILES | Activity (P388 [1]) | other results
1 | CCN(CC)CCNc1ccc2ncn3c4ccc(C(C)(C)C)cc4c(=O)c1c23 | 0% | 
2 | CCN(CC)CCNc1ccc2ncn3c4cc(O)ccc4c(=O)c1c23 | 27% | 
3 | CN(C)CCNc1ccc2nnn3c4ccccc4c(=O)c1c23 |  | Activity (P388 [2]): 77%
4 | CCN(CC)CCCCCNc1ccc2ncn3c4ccc(C)cc4c(=O)c1c23 | 20% | 
5 | CN(C)CCCCCNc1ccc2ncn3c4ccc(O)cc4c(=O)c1c23 | 85% | 
6 | CN(C)CCNc1ccc2ncn3c4ccccc4c(=O)c1c23 | 90% | 
7 | Cc1ccc2c(c1)c(=O)c1c(NCCCN(C)C)ccc3nnn2c31 |  | Activity (P388 [2]): 18%
8 | CN(C)CCCNc1ccc2ncn3c4ccccc4c(=O)c1c23 | 25% | 
9 | CN(C)CCCNc1ccc2nnn3c4ccc(O)cc4c(=O)c1c23 |  | Activity (P388 [3]): 165%
10 | CCN(CC)CCNc1ccc2nc(C)n3c4ccc(O)cc4c(=O)c1c23 | 185% | 
11 | CCN(CC)CCNc1ccc2ncn3c4ccc(OC)cc4c(=O)c1c23 | 96% | 
12 | CN(C)CCNc1ccc2nnn3c4ccc(O)cc4c(=O)c1c23 |  | Activity (P388 [3]): 102%
13 | CCNCCNc1ccc2nnn3c4ccc(O)cc4c(=O)c1c23 | 78% | 
14 | CN(C)CCNc1ccc2nnn3c4ccc(C(C)(C)C)cc4c(=O)c1c23 | 0% | 
15 | CN(C)CCNc1ccc2ncn3c4ccc(O)cc4c(=O)c1c23 | 110% | 
16 | CN(C)CCCNc1ccc2ncn3c4ccc(O)cc4c(=O)c1c23 | 120% | 
17 | CN(C)CCN(C)c1ccc2nnn3c4ccc(O)cc4c(=O)c1c23 |  | Activity (P388 [3]): 10%
18 | CCN(CC)CCNc1ccc2ncn3c4ccc(O)cc4c(=O)c1c23 [C-1311] | 93% | 
19 | CN(C)CCCCCNc1ccc2ncn3c4ccccc4c(=O)c1c23 | 10% | 
20 | CCN(CC)CCNc1ccc2ncn3c4ccccc4c(=O)c1c23 | 55% | 

— ChEMBL document CHEMBL3044871, “Importance of some classes of molecular descriptors on classification of antitumor acridinones using factor analysis” (2012)
